In data set [1] the target is AChE from Electrophorus electricus (EeAChE) (Electrophorus electricus, UniProt O42275). Briefly: physchem. The following applies: for solubility: pH 8. The method, then:
The inhibitory activity on AChE from Electrophorus electricus (type VI-S, Sigma, Milan, Italy), was evaluated spectrophotometrically by the method of Ellman et al.. AChE stock solution was prepared by dissolving EeAChE lyophilized powder (Sigma) in 0.1 M phosphate buffer (pH = 8.0) containing 0.1% Triton X-100. Stock solutions of the tested compounds (1 mM) were prepared in MeOH/H2O 50/50 (v/v) and diluted in MeOH/H2O 50/50 (v/v). […] Assay solutions with and without inhibitor were preincubated at 37 °C for 20 min followed by the addition of substrate. Blank solutions containing all components except EeAChE were prepared in parallel to account for the non-enzymatic hydrolysis of the substrate. Initial rate assays were performed at 37 °C with a Jasco V-530 double beam spectrophotometer. […] The velocity in the presence and absence of inhibitor were compared and % inhibition was calculated. The results were plotted by placing the percentage of inhibition in function of the decimal log of the final inhibitor concentration. Linear regression and IC50 values were calculated using Microcal Origin 3.5 software (Microcal Software, […]).

The subject of a further data set is HepG2 cells. Format: cell-based. To be noted: for Cell viability (MTT reduction, % control): 24 h, mean ± S.E.M.; for hepatotoxicity on HepG2 cells (in words): cell viability assay, 1–1000 µM. The method, then:
The human hepatoma HepG2 line cells were purchased from American Type Culture Collection. The cells were cultured in Eagle’s Minimum Essential Medium (Ozyme, Montigny-le-Bretonneux, France) supplemented with 10% fetal bovine serum, 1X non-essential amino acids, 100 units/mL penicillin and […] streptomycin (Dutscher, Brumath, France). […] Prior to the experiment, cells were seeded in 96-well culture plates at a density of 0.1 × 10^6 cells per well. After 24 h of incubation, the culture medium was refreshed and 100 µL of the test compounds or DMSO (0.1%) were added. Compounds were tested at 7 concentrations (1–1000 µM) in triplicate.
Cell viability, measured as the mitochondrial activity of living cells, was determined by quantitative colorimetric assay with 3-[4,5 dimethylthiazol-2-yl]-2,5-diphenyl-tetrazolium bromide (MTT). Briefly, after 24 h of treatment, cells were incubated with 50 µL MTT (0.5 mg/mL, Sigma Aldrich) at 37 °C for 2 h. Plates were centrifuged, MTT was removed and 100 µL DMSO was distributed per well. The absorbance was read at 570 nm by microplate spectrophotometry. Cell viability was expressed as percentage over controls (DMSO, 0.1%).
A general note: Formazan colour is commonly taken as a measure of viable cells.

Data set [2] concerns the target T1, BuChE from horse serum (eqBuChE) (Equus caballus, UniProt P81908).
T1 construct: BuChE from horse serum (lyophilized powder, Sigma-Aldrich); purchased Sigma-Aldrich; host or cells: horse serum
The data set is described as follows: biochemical. The following applies: mean ± SEM. The protocol:
The % inhibitory activity on BuChE from horse serum (lyophilized powder, Sigma-Aldrich), was evaluated spectrophotometrically by the method of Ellman et al.. BuChE stock solutions were first dissolved in 0.1 M phosphate buffer (pH 8.0) and then aliquoted in small vials. Compounds were dissolved in DMSO at 10 mM. The reaction was carried out in a final volume of 3 mL of a 0.1 M phosphate-buffered solution at pH 8.0, containing 5,5′-dithiobis-2-nitrobenzoic acid (DTNB, 2625 µL, 0.35 mM, final concentration), eqBuChE (60 µL, 0.05 U/mL final concentration), tested compound (3 µL, 10 µM, final concentration) and 1% w/v Bovine Serum Albumin phosphate-buffered (pH 8.0) solution (BSA, 40 µL). The inhibition with respect to control without compound was determined by pre-incubating this mixture at rt with each compound for 10 min. After this period, butyrylthiocholine iodide (150 µL, 0.5 mM final concentration) was added and incubated for 15 min at rt.

A short description of data set [3]: Oxygen radical absorbance capacity by fluorescence (ORAC-FL). To be noted: Trolox equivalents, mean ± SD. The protocol:
The antioxidant power of the imidazopyranotacrines 1–13 was determined by the oxygen radical absorbance capacity by fluorescence (ORAC-FL) method using fluorescein as fluorescent probe and Trolox (6-hydroxy-2,5,7,8-tetramethylchroman-2-carboxylic acid) as a reference compound. Results are expressed as Trolox equivalents (μmol Trolox per μmol test compound).
The radical scavenging activity of imidazopyranotacrines 1–13 was determined by the ORAC-FL method using a Varioskan Flash plate reader with built-in injectors (Thermo Scientific). Trolox, 2,2′-azobis(amidinopropane) dihydrochloride (AAPH) and fluorescein (FL) were purchased from Sigma-Aldrich. The reaction was performed at 37 °C in 75 mM phosphate buffer (pH = 7.4), and the final volume reaction mixture was 200 µL. The final concentrations were 1–8 µM for Trolox and 0.1–1 µM for the tested compounds. Briefly, in a black 96-well microplate (Nunc), antioxidant (20 µL) and fluorescein (120 µL) were incubated for 15 min at 37 °C. Then, 2,2′-azobis(amidinopropane) dihydrochloride (60 µL) was added using the built-in injector. […] All assays were made in triplicate and at least three different assays were performed for each sample.
The net AUC corresponding to a sample was calculated as follows: Net AUC = AUCantioxidant − AUCblank(2)
Regression equations were calculated by plotting the net AUC against the antioxidant concentration. The ORAC value was obtained by dividing the slope of the latter curve by the slope of the Trolox curve obtained in the same assay. ORAC values was expressed as µmol of Trolox equivalent/µmol of imidazopyranotacrines. Data are expressed as mean ± SD.

Where [4] appears, read: read-out: EeAChE % inhibition at the highest concentration.

In brackets after ≈: the same amount, converted by molar mass. Several values for one entry are separate records, joined by “and”; a condition that tells them apart may be missing. Equal entries are not always repeated. Where two headings read alike, the source gives them in different places. A value given as a limit tells only on which side of the number the result lay.

Sequence of AChE from Electrophorus electricus (EeAChE) (O42275 24-633): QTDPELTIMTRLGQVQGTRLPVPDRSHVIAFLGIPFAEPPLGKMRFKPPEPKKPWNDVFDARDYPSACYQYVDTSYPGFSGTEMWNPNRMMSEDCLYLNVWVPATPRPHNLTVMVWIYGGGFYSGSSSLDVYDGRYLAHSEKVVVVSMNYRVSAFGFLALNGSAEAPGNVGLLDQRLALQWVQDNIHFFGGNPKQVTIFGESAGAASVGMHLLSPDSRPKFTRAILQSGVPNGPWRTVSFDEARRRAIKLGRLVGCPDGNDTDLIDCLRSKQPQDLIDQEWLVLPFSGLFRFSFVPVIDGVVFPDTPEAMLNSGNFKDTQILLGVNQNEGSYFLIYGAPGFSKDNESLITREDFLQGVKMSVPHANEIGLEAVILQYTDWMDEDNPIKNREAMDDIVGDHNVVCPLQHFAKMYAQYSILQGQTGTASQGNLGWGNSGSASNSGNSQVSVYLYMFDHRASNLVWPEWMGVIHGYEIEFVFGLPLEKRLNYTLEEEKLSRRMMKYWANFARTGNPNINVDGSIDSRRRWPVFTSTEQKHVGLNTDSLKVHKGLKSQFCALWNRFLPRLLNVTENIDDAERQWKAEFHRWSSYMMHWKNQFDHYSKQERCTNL
T1 sequence (P81908 whole entry): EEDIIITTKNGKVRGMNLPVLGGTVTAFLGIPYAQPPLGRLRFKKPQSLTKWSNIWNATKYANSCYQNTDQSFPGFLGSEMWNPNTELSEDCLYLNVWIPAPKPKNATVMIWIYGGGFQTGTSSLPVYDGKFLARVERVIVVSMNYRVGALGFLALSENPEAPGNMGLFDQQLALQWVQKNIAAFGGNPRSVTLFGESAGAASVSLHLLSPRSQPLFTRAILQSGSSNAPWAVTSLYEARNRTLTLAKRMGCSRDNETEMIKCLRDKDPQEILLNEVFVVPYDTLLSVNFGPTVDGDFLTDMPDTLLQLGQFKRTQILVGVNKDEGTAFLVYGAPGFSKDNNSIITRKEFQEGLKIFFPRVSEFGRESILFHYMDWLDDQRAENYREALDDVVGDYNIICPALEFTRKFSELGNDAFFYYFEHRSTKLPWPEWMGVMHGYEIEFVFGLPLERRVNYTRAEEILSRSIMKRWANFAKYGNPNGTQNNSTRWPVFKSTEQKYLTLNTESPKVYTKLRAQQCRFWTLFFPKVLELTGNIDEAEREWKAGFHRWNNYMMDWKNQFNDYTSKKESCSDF

What is called IC50 is the point on the concentration scale where inhibition reaches its midpoint. Turning to “7-(1-Methyl-1H-imidazol-2-yl)-9,10,11,12-tetrahydro-7H-benzo[7,8]chromeno[2,3-b]quinolin-8-amine [Compound 10]”, the 50% inhibitory concentration (IC50) in data set [1] (read-out: EeAChE IC50 Values, mean ± SEM) stood at 10.7 ± 0.2 µM. For the same compound, the “Cell viability (MTT reduction, % control)” value turned out to be 101.8 ± 4.2 % control in the data set on HepG2 cells (HepG2, 1 µM); 100.7 ± 2.6 % control with HepG2 cells (HepG2, 3 µM); 100.5 ± 1.9 % control in the data set with HepG2 cells (HepG2, 10 µM); 71.4 ± 7.4 % control in the data set on HepG2 cells (HepG2, 30 µM); 63.5 ± 6.2 % control in the data set on HepG2 cells (HepG2, 100 µM); 64.8 ± 5.7 % control with HepG2 cells (HepG2, 300 µM). In addition, the “Cell viability (MTT reduction, % control)” value in the data set with HepG2 cells (HepG2, 1000 µM) is reported as 66.8 ± 4.1 % control. In the data set on HepG2 cells, the “hepatotoxicity on HepG2 cells (in words)” value was “more toxic than tacrine”. Moreover, in data set [2], the “eqBuChE % Inhibition at 10 μM” value came out at 25.0 ± 0.2%. Moreover, in data set [3], the ORAC is recorded as 2.75 ± 0.09 µmol Trolox/µmol compound.
For `CCOC(=O)C1=C(C)Oc2nc3c(c(N)c2C1c1nccn1C)CCC3` (stereo not drawn) [Compound 1, Ethyl 5-amino-2-methyl-4-(1-methyl-1H-imidazol-2-yl)-4,6,7,8-tetrahydrocyclopenta[b]pyrano[3,2-e]pyridine-3-carboxylate], the IC50 in data set [1] was 12.9 ± 0.3 µM. The inhibition at 10 µM in data set [2] is 25.6 ± 0.7%. The ORAC in data set [3] was found to be 0.34 ± 0.03 µmol Trolox/µmol compound.
In data set [1], `CCOC(=O)C1=C(C)Oc2nc3c(c(N)c2C1c1nccn1C)CCCC3` (stereo not drawn) [Compound 2, Ethyl 5-amino-2-methyl-4-(1-methyl-1H-imidazol-2-yl)-6,7,8,9-tetrahydro-4H-pyrano[2,3-b]quinoline-3-carboxylate] yielded an IC50 of 11.5 ± 0.4 µM. Besides, the “Cell viability (MTT reduction, % control)” value in the data set with HepG2 cells (HepG2, 1 µM) was 102.7 ± 3.7 % control; with HepG2 cells (HepG2, 3 µM) it was 103.2 ± 4.4 % control; in the data set with HepG2 cells (HepG2, 10 µM), 101.3 ± 3.9 % control; in the data set on HepG2 cells (HepG2, 30 µM) it was 99.2 ± 2.6 % control; with HepG2 cells (HepG2, 100 µM), 93.0 ± 4.7 % control; in the data set on HepG2 cells (HepG2, 300 µM), 87.5 ± 3.2 % control. The “Cell viability (MTT reduction, % control)” value in the data set on HepG2 cells (HepG2, 1000 µM) amounted to 58.8 ± 2.1 % control. The “hepatotoxicity on HepG2 cells (in words)” value in the data set on HepG2 cells is “safe even at 300 µM”. In data set [2], this compound displayed an inhibition at 10 µM of 34 ± 0.5%. In addition, the ORAC in data set [3] amounted to 1.79 ± 0.17 µmol Trolox/µmol compound.
`CCOC(=O)C1=C(C)Oc2nc3c(c(N)c2C1c1nccn1C)CCCCC3` (stereo not drawn) [Compound 3, Ethyl 5-amino-2-methyl-4-(1-methyl-1H-imidazol-2-yl)-4,6,7,8,9,10-hexahydrocyclohepta[b]pyrano[3,2-e]pyridine-3-carboxylate] gave a half-maximal inhibitory concentration (IC50) in data set [1] of 432 ± 84 µM. Also, the inhibition at 10 µM in data set [2] came to 32.2 ± 0.9%. In addition, the ORAC in data set [3] came out at 1.99 ± 0.23 µmol Trolox/µmol compound.
The like results for `Cn1ccnc1C1C2=C(CC(C)(C)CC2=O)Oc2nc3c(c(N)c21)CCC3` (stereo not drawn) [Compound 5, 11-Amino-7,7-dimethyl-10-(1-methyl-1H-imidazol-2-yl)-2,3,6,7,8,10-hexahydrochromeno[2,3-b]cyclopenta[e]pyridin-9(1H)-one] were, in that order, 158 ± 33 µM, 12.9 ± 0.5% and 1.70 ± 0.33 µmol Trolox/µmol compound.
`Cn1ccnc1C1C2=C(CC(C)(C)CC2=O)Oc2nc3c(c(N)c21)CCCC3` (stereo not drawn) [Compound 6, 11-Amino-3,3-dimethyl-12-(1-methyl-1H-imidazol-2-yl)-2,3,4,7,8,9,10,12-octahydro-1H-chromeno[2,3-b]quinolin-1-one] had an IC50 in data set [1] of 37.8 ± 1.2 µM. Moreover, the inhibition at 10 µM in data set [2] worked out at 33.5 ± 1.7%. The ORAC in data set [3] is 2.34 µmol Trolox/µmol compound and 2.34 ± 0.31 µmol Trolox/µmol compound.
Take `Cn1ccnc1C1c2c(nc3c(c2N)CCC3)Oc2ccc3ccccc3c21` (stereo not drawn) [Compound 7, 13-(1-Methyl-1H-imidazol-2-yl)-9,10,11,13-tetrahydrobenzo[5,6]chromeno[2,3-b]cyclopenta[e]pyridin-12-amine]: in data set [1], the IC50 is 8.41 ± 0.14 µM. In data set [2], this compound showed an inhibition at 10 µM of 50.5 ± 7.3%. The ORAC in data set [3] came out at 1.47 ± 0.13 µmol Trolox/µmol compound.
For orientation: solubility means how much of the substance goes into solution per volume. On to `Cn1ccnc1C1c2c(nc3c(c2N)CCCCC3)Oc2ccc3ccccc3c21` (stereo not drawn) [Compound 9, 15-(1-Methyl-1H-imidazol-2-yl)-9,10,11,12,13,15-hexahydrobenzo[5,6]chromeno[2,3-b]cyclohepta[e]pyridin-14-amine], for which the concentration in solution in data set [1] (solubility) was 15 µM (≈ 5.95 µg/mL). In data set [1] (setting [4]), the inhibition at 15 µM is less than 15%. Besides, in data set [2], the inhibition at 10 µM was 15.1 ± 4.7%. In data set [3], the ORAC was found to be 1.35 ± 0.13 µmol Trolox/µmol compound.
As for `Cn1ccnc1C1c2ccc3ccccc3c2Oc2nc3c(c(N)c21)CCCCC3` (stereo not drawn) [Compound 11, 7-(1-Methyl-1H-imidazol-2-yl)-7,9,10,11,12,13-hexahydrobenzo[7,8]chromeno[2,3-b]cyclohepta[e]pyridin-8-amine], in data set [1], the concentration in solution (solubility) came to 25 µM (≈ 9.91 µg/mL). Moreover, the inhibition at 25 µM in data set [1] (setting [4]) was less than 15%. Moreover, the inhibition at 10 µM in data set [2] worked out at 20.3 ± 3.7%. The ORAC in data set [3] is 2.33 µmol Trolox/µmol compound and 2.33 ± 0.13 µmol Trolox/µmol compound.
As for `Cn1ccnc1C1c2ccc3cccnc3c2Oc2nc3c(c(N)c21)CCC3` (stereo not drawn) [Compound 12, 7-(1-Methyl-1H-imidazol-2-yl)-7,9,10,11-tetrahydrocyclopenta[5′,6′]pyrido[3′,2′:5,6]pyrano[3,2-h]quinolin-8-amine], in data set [1], the 50% inhibitory concentration (IC50) was 15.3 ± 0.6 µM. In data set [2], the inhibition at 10 µM was 27.5 ± 1.1%. The ORAC in data set [3] was 1.88 ± 0.07 µmol Trolox/µmol compound.
In data set [1], `Cn1ccnc1C1c2ccc3cccnc3c2Oc2nc3c(c(N)c21)CCCCC3` (stereo not drawn) [Compound 13, 7-(1-Methyl-1H-imidazol-2-yl)-7,9,10,11,12,13-hexahydrocyclohepta[5′,6′]pyrido[3′,2′:5,6]pyrano[3,2-h]quinolin-8-amine] displayed an IC50 of 30 ± 2 µM. The same compound registered an inhibition at 10 µM in data set [2] of 75.7 ± 2.3%. For the same compound, in data set [3], the ORAC is 2.25 µmol Trolox/µmol compound and 2.25 ± 0.29 µmol Trolox/µmol compound.

The values are drawn from paper PMC6273229, “Imidazopyranotacrines as Non-Hepatotoxic, Selective Acetylcholinesterase Inhibitors, and Antioxidant Agents for Alzheimer′s Disease Therapy” (Molecules, 2016).
